Assay results as given in patent EP2605769B1, “BENZOQUINONE DERIVATIVES FOR THE TREATMENT OF MITCHONDRIAL EYE DISEASES” (Santhera Pharmaceuticals (Schweiz) AG, priority 2010, dated 2012).
Like-named read-outs stand apart in the source and are kept apart here.

What was measured:
[1] = tested on: C57BL/6J mice; assay: Mouse model of intravitreal rotenone injection, histopathology, second study with modified less invasive injection method; assay type: in vivo
Source text: This mouse model is used to assess the therapeutic potential of compounds in eye disorders characterized by mitochondrial dysfunction such as LHON, DOA, macular degeneration, retinopathy, and complex I deficiency. It is a widely accepted in vivo model based on single-eye intravitreal injection of the mitochondrial complex I inhibitor rotenone in the adult mouse. Intravitreal injection of rotenone induces neurotoxicity through mitochondrial complex I dysfunction in the retina which is the main molecular dysfunction […]. […] Histological analysis includes quantitative measurement of the retinal thickness (whole retina and individual layers), RGC apoptosis and cell death, oxidative stress, glutamine synthetase expression, and gliosis. The non-injected eye is used as a within subject, i.e. intraindividual, control. Male wild-type C57BL/6J mice (7 weeks old, about 25 g body weight) are individually housed in Makrolon type II cages with standard bedding and free access to food and water under a regular 12-hours light-dark cycle (8 a.m. to 8 p.m.). […] The injection is performed over a period of 2 min and the needle is kept in place for an additional 3 min, after which it is gently removed. Sterile surgical glue (Histoacryl, BRAUN/Aesculap AG, Germany) is used to seal the site of injection and a sterile antimicrobial ophtalmic ointment (Neosporin, GlaxoSmithKline, UK) is applied to the injected eye to avoid any infection. […] The eye balls are removed, retinas are dissected, fixed for an additional 2 h at 4°C, incubated in PB 0.1 M and 30% sucrose overnight, frozen in optimal cutting temperature compound (O.C.T., Tissue-Tek, Miles Laboratories, Elkhart, IN, USA), sliced at 14 μm, and collected onto glass slides for immunostaining. Immunostaining is performed accordingly to conventional method using multiple primary antibodies. Fluorescent-conjugated secondary antibodies and DAPI are used for visualization under a fluorescence microscope. All procedures are performed in accordance with the Swiss regulation and under a license approved by the "Kantonales Veterinäramt Basel-Land". […] A modified, less invasive injection method was used to further minimize damage caused by the injection itself. […] At 400 mg/kg Compound IA, a clear significant protection was observed (269 μm; p = 0.03), whereas at 2000 mg/kg a strong protective trend was detected (258 μm; p = 0.06). […] Table 6 In Table 6, the histological data on 7 days post-injection is expressed as % of sham (DMSO) injected control ± SEM. […] The term IA 200 defines a treatment with Compound IA at a concentration of 200 mg/kg; […], IA 400 and IA 2000: define a treatment with Compound IA at 400 mg/kg and at 2000 mg/kg, respectively. Statistical significance relative to vehicle + rotenone group is expressed as p ≤ 0.05 (*). n designates the number of retinas per group.

[2] = Pharmacokinetic analysis in plasma and eye fluids after oral administration; assay type: in vivo, mice; conditions: for Kp: single oral 400 mg/kg; for AUC(0-t): read-out: AUC0-6h
Protocol: Pharmacokinetic analysis of test compounds after oral administration aims to determine its bioavailability and clearance in the plasma and in the eye fluids (aqueous and vitreous humor). The test compounds are quantified in the plasma and in the aqueous and vitreous humor after acute and repeated treatment (with different routes of administration). The time-dependent concentration is then determined and pharmacokinetic parameters (Cmax, AUC0-t, tmax) are calculated.
Experimental procedure: Male wild-type C57BL/6J mice (7 weeks old, about 25 g body weight) are individually housed in Makrolon type II cages with standard bedding and free access to food and water under a regular 12-hours light-dark cycle (8 a.m. to 8 p.m.). Mice receive single or daily repeated oral doses of the test compounds (ranging from 20 to 2000 mg/kg of body weight) or the vehicle administered though the diet or by gavage at the end of the light phase. The treatment can be followed by a washout period. Samples for pharmacokinetic analysis are taken at different time intervals following compound administration. Mice are anesthetized by 5% isofluran inhalation in an induction chamber and sacrificed by cervical dislocation. Blood is collected from the head cut for plasma extraction. Eye balls are dissected out to collect aqueous and vitreous humor. Samples are snap frozen in liquid nitrogen and stored (-80°C) until analyzed by LC-MS/MS and accordingly to standardized procedures. All mouse procedures are performed in accordance with the Swiss regulation and under a license approved by the "Kantonales Veterinäramt Basel-Land".
The pharmacokinetic profile of idebenone (compound IA) was assessed, following a single oral gavage dose to male mice. […] Furthermore, the ratio (vitreous humor /plasma and aqueous humor/plasma) appeared to be independent of the time post dose, consistent with a lack of accumulation of idebenone in the eye. The overall extent of exposure to idebenone in the vitreous humor, as measured by AUC0-6h, represented about 2 % of that observed in plasma (vitreous/plasma ratio; Table 8). Similarly, the extent of exposure to idebenone in the aqueous humor represented about 3 % of that observed in plasma (aqueous/plasma ratio; Table 8).

[3] = 200 mg/kg + rotenone, 7 days post-injection, ± SEM
[4] = 400 mg/kg + rotenone, 7 days post-injection, ± SEM
[5] = 2000 mg/kg + rotenone, 7 days post-injection, ± SEM
[6] = C57BL/6J, mouse, Aqueous Humor, single oral administration at 400 mg/kg, male mice
[7] = C57BL/6J, mouse, Plasma, single oral administration at 400 mg/kg, male mice
[8] = C57BL/6J, mouse, Vitreous Humor, single oral administration at 400 mg/kg, male mice

For `COC1=C(OC)C(=O)C(CCCCCCCCCCO)=C(C)C1=O` [Compound IA, Idebenone], the Gliosis [1, 3] was 124.46 ± 7.37 * (n=7) % of sham (DMSO) injected control, the RGC number [1, 3] was 62.53 ± 9.13 (n=7) % of sham (DMSO) injected control and the Retinal thickness [1, 3] was 91.17 ± 5.72 (n=8) % of sham (DMSO) injected control. The Retinal thickness ([1]; 200 mg/kg, 7 days after rotenone-injection, sham about 300 µm, rotenone 220 µm) was 272 µm, the Gliosis [1, 4] was 125.04 ±9.12 * (n=6) % of sham (DMSO) injected control and the RGC number [1, 4] was 63.68 ± 5.98 * (n=6) % of sham (DMSO) injected control. For the same compound, the Retinal thickness [1, 4] was 89.93 ± 2.16 * (n=6) % of sham (DMSO) injected control, the Retinal thickness ([1]; 400 mg/kg, 7 days after rotenone-injection, sham about 300 µm, rotenone 220 µm) was 269 µm and the Gliosis [1, 5] was 129.86 ± 7.32 * (n=7) % of sham (DMSO) injected control. The RGC number [1, 5] was 64.44 ± 4.56 * (n=8) % of sham (DMSO) injected control, the Retinal thickness [1, 5] was 86.58 ± 2.51 (n=8) % of sham (DMSO) injected control and the Retinal thickness ([1]; 2000 mg/kg, 7 days after rotenone-injection, sham about 300 µm, rotenone 220 µm) was 258 µm. It also gave a Kp ([2]; C57BL/6J, mouse, aqueous humor / plasma, male mice, read-out: extent of exposure in the aqueous humor relative to plasma) of roughly 0.03, a Kp ([2]; C57BL/6J, mouse, vitreous humor / plasma, male mice, read-out: extent of exposure in the vitreous humor (AUC0-6h) relative to plasma) of roughly 0.02 and a Cmax [2, 6] of 86.2 ng/mL. The Tmax [2, 6] was 15 min, the AUC(0-t) [2, 6] was 62.6 ng·h/mL and the AUC(0-inf) [2, 7] was 1960 ng·h/mL. The Cmax [2, 7] was 1070 ng/mL, the Tmax [2, 7] was 15 min and the half-life [2, 7] was 102 min. It also gave an AUC(0-t) [2, 7] of 1860 ng·h/mL, a Cmax [2, 8] of 37.9 ng/mL and a Tmax [2, 8] of 15 min. For the same compound, the AUC(0-t) [2, 8] was 38.1 ng·h/mL, the λz ([2]; Plasma, single oral administration at 400 mg/kg, male mice) was 0.409 h⁻¹ and the “time of maximum in vitreous and aqueous humors (up-take into the eye)” value ([2]; oral dietary or gavage administration, mouse, post-dose) was less than 15 min. The “time of maximum concentration in plasma, vitreous and aqueous humors” value ([2]; single oral dose of 400 mg/kg, first sampling time post-dose) was 15 min.
